Measurements taken from patent publication US20050187161A1, “Biopanning as an approach to study the pathogenesis of and produce novel treatment modalities for invasive Aspergillosis” (priority 2003, published 2005).
Ends that are not written are not given here.

Columns and labels:
A. fumigatus hyphae [1] = conditions: Bowman et al., 2002; cited from earlier work
IA = conditions: Abruzzo et al., 1997; cited from earlier work
Aspergillus = conditions: Espinel-Ingroff, 1998; cited from earlier work
A. fumigatus hyphae [2] = test: BRASIL selection of CX7C phage display library on A. fumigatus hyphae; assay type: binding, Aspergillus fumigatus; conditions: after 5 selection rounds, clones with the motif / 40 random phage clones sequenced
Experimental: (§1) To identify potential host ligands that bind on the surface of A. fumigatus conidia and hyphae, a phage display library (CX7C) for A. fumigatus conidia and hyphae binding ligands using BRASIL is screened. The Aspergillus fumigatus clinical isolate AF293 (currently being used in the Aspergillus sequencing project, provided kindly by Dr. D. Denning, Manchester, UK.) is plated on YAG plates at 37° C. for 3 days and conidia are collected. Conidia (suspensions of 10^4 conidia/ml) are incubated at 37° C. for 16-20 hours in liquid YAG medium to allow for germination to hyphae. Conidia or hyphae, collected as described earlier, were then incubated with 10^9 transducing units (TU) of CX7C phage display library (Arap et al., 2002). A phage-conidia/hyphae suspension in an upper aqueous phase is centrifuged through a non-miscible organic phase with an intermediate specific density. Upon optimized centrifugation conditions conidia or hyphae entered the lower organic phase and pellet at the bottom of the tube, carrying with them only the specifically bound phage (FIG. 10). Dibutylphtalate:Cyclohexane ratio of the organic phase is preferably 6:1. Hyphae needed 100,000 g for pelleting as compared to 10,000 g for conidia (FIG. 10). The conidia/hyphae pellet is then recovered (after freezing, FIG. 10), and the phage is rescued by infection of E. coli K91kan bacteria (FIG. 1). Amplified phage was then used for subsequent rounds of selection (FIG. 10)
(§2) Infected E. coli K91Kan were incubated overnight in LB medium with kanamycin as selection marker (70 μg/ml), tetracycline that served as inducer of phage multiplication (40 μg/ml, the phage also contains the tetracycline resistance gene tetR), and voriconazole for suppression of conidial and hyphal growth (4 μg/ml). The next day, the phage was first separated from E. coli by centrifuigation, recovered using PEG/NaCl, and finally tittrated (to 109 TU units/μl) in order to be used in subsequent selection rounds.
(§3) After 4 rounds of selection for conidia 5 rounds for hyphae, peptide-inserts of 40 random phage clones (each for conidia and hyphae) were sequenced and analyzed for peptide sequences according to enrichment and by ClustalW sequence alignment. Selected motifs were then used to search non-redundant protein databanks.

A. fumigatus conidia = test: BRASIL selection of CX7C phage display library on A. fumigatus conidia; assay type: binding, Aspergillus fumigatus; conditions: after 4 selection rounds, clones with the motif / 40 random phage clones sequenced
Experimental: as §1, §2, §3

AF293 conidia = test: Inhibition of WGHSRDE phage binding on AF293 conidia by synthetic peptide; set-up: species or system Aspergillus fumigatus; conditions: FIG. 13; synthetic peptide 0.1, 1, 10 and 100 μM
Experimental: To validate that the CWGHSRDEC (SEQ ID NO:1) phage is mediating specific binding to AF293 conidia, the CWGHSRDEC (SEQ ID NO:) phage and the AF293 conidia are co-incubated in the presence of increasing concentrations of the CWGHSRDEC (SEQ ID NO: 1) peptide. A decrease in the amount of CWGHSRDEC (SEQ ID NO: 1) phage binding on the surface of AF293 conidia after adding the CWGHSRDEC (SEQ ID NO:1) peptide indicates the CWGHSRDEC (SEQ ID NO:1) peptide binds to the surface of AF293 conidia thus preventing the corresponding phage from binding on these sites.
Protocol: Increasing concentrations of the synthetic CWGHSRDEC (SEQ ID NO:1) peptide or a control scramble peptide (e.g., CLLSATPSC (SEQ ID NO:)) (0.1, 1, 10 and 100 μM) is incubated with 200 μl of a 5×10^8 AF293 conidia/ml solution in 1% BSA/PBS for 1 hour at room temperature and 10^8 TU of CWGHSRDEC (SEQ ID NO:1) phage is added and incubated for 2 hours at room temperature. The conidia/phage suspension is centrifuged over an organic phase for 10 min at 10,000 g. Pelleted conidia/phage is used for k91kan infection. The BRASIL method is followed as previously mentioned. A potential decrease in the phage binding on AF293 conidia as a function of the addition of the CWGHSRDEC (SEQ ID NO:1) peptide is graphed as shown in FIG. 13 (Giordano et al, 2001): […]

Molecule	Times identified (A. fumigatus hyphae [2])	Times identified (A. fumigatus conidia)	also measured
CC[C@H](C)C[C@H](C)CCCCCCCCC(=O)N[C@H]1C[C@@H](O)[C@@H](NCCN)NC(=O)[C@@H]2[C@@H](O)CCN2C(=O)[C@H]([C@H](O)CCN)NC(=O)[C@H]([C@H](O)[C@@H](O)c2ccc(O)cc2)NC(=O)[C@@H]2C[C@@H](O)CN2C(=O)[C@H]([C@@H](C)O)NC1=O [CAS, Caspofungin]	–	–	viability of growing A. fumigatus hyphae by DiBAC staining (A. fumigatus hyphae [1]): kills the apical tips of hyphae; efficacy in animal models of IA (IA): shown efficacy; Aspergillus growth in vitro (Aspergillus): growth reduction
DLTHVSA (listed as Aspergillus fumigatus)	1/40	–	–
ELLRRGGS (ELRRGGS; listed as Aspergillus fumigatus)	–	2/40	–
GARASGS (listed as Aspergillus fumigatus)	–	4/40	–
GGRLGPF (listed as Aspergillus fumigatus)	2/40	–	–
GGWGPGS (listed as Aspergillus fumigatus)	–	2/40	–
GTSRWLR (listed as Aspergillus fumigatus)	1/40	–	–
IGRAPQM (listed as Aspergillus fumigatus)	–	2/40	–
ISTFARG (listed as Aspergillus fumigatus)	1/40	–	–
LLSATPS (listed as Aspergillus fumigatus)	–	8/40	–
NPGYWGN (listed as Aspergillus fumigatus)	1/40	–	–
SLVRGGT (listed as Aspergillus fumigatus)	–	2/40	–
SSGDRTA (listed as Aspergillus fumigatus)	–	2/40	–
VGVEYRT (listed as Aspergillus fumigatus)	1/40	–	–
VVGSADG (listed as Aspergillus fumigatus)	1/40	–	–
WGHSRDE (not fully specified (N-terminus, C-terminus, bridges); listed as Aspergillus fumigatus) [synthetic peptide used as …]	–	12/40	inhibition of WGHSRDE phage binding on AF293 conidia (AF293 conidia): specific inhibition
XCDSSVS (not fully specified; X: residue not identified in the source; listed as Aspergillus fumigatus)	1/40	–	–
